{"source": "patent EP1300161A1", "about": "“Cationic lipids suitable for gene transfer” (rubitec Gesellschaft für Innovation und Technologie der …, priority 2001, dated 2003)", "key": {"COS-7 cell-line [1]": {"system": "COS-7 cell-line", "assay": "Lipofection (luciferase reporter) transfection efficiency in COS-7 cells", "type": "cell-based, African green monkey", "source_text": "Screening / Lipofection studies: For a broad and reproducible testing the transfection properties of systematically varied new cationic lipids, we recently have developed an fully automated high throughput system ([…]. et al., J. Biomol. Screening (2001)). This system, which comprises the entire lipofection process from liposome formation to reporter gene assay, allows to identify candidate cationic lipids and to develop suitable lipofection reagents and protocols based on those lipids. Automation of this process was necessary, because manually testing of various cationic lipids or lipid mixtures is extremely labor intensive and high reproducibility can not be guarantied. Goal of this first step was to find the cationic lipid with the best hydrocarbon chain composition for the development of suitable lipofection reagents and protocols. All lipids with different hydrocarbon chains (lipids 1-16, table 1) which are R-configurated and have chloride as counter ion were tested using a standard protocol: From each lipid, eight different lipoplexes containing equimolar amounts of the helper lipid DOPE were formed using different DNA:lipid-charge ratios from 1:1 - 1:15, resulting in a lipofection profile for each lipid (fig. 1). The COS-7 cell-line was used for this first lipofection study because COS-7 is easy to transfect and differences between the lipids are easy to identify. For comparison, the transfection efficiency of the well know cationic lipid DOTAP at its best lipid/DNA charge ration of 2.5 was also determined in each run. Cell culture: The initial transfection screening was carried out using COS-7 cells. The cells were maintained in 96-well culture plates (Greiner, Frickenhausen, Germany) in 200 μl EMEM/10 % FCS/1 % Penicillin-streptomycin in a humidified atmosphere at 37 °C/5 % CO2. […] For the subsequent quantification of transfection efficiency (part 2) a reporter plasmid carrying the firefly luciferase gene under the control of the CMV promoter is used to form lipoplexes. […]"}, "[2]": {"system": "mamma carcinoma cell line MDA-MB-468", "assay": "Lipofection transfection efficiency in MDA-MB-468 cells", "type": "cell-based"}, "[3]": {"system": "mamma carcinoma cell line MCF-7", "assay": "Lipofection transfection efficiency in MCF-7 cells", "type": "cell-based"}, "primary dendritic cells": {"system": "primary dendritic cells", "assay": "Lipofection transfection efficiency in primary dendritic cells", "type": "cell-based, human"}, "[4]": {"assay": "Cytotoxicity of lipoplexes (protein content of transfected versus non-transfected cells)", "type": "cell-based, African green monkey", "conditions": "monkey, cos-7 cells; equimolar DOPE, COS-7; read-out: vitality of the cells at maximum transfection efficiency", "experimental": "(§1) Goal of this first step was to find the cationic lipid with the best hydrocarbon chain composition for the development of suitable lipofection reagents and protocols. All lipids with different hydrocarbon chains (lipids 1-16, table 1) which are R-configurated and have chloride as counter ion were tested using a standard protocol: From each lipid, […] DNA:lipid-charge ratios from 1:1 - 1:15, resulting in a lipofection profile for each lipid (fig. 1). The COS-7 cell-line was used for this first lipofection study because COS-7 is easy to transfect and differences between the lipids are easy to identify. For comparison, the transfection efficiency of the well know cationic lipid DOTAP at its best lipid/DNA charge ration of 2.5 was also determined in each run. Part 2 (Transfection assays): After lipoplex formation, the robot took the cell culture microtiter plates from an incubator and removed the lid from the plates. Immediately prior to transfection, 100 µl of the culture medium were removed and the lipoplexes were dispensed into the wells (triplicates). The lids were replaced and the MTP were returned to the incubator. […] Assay specific standards and controls were added to the microplates, and luciferase activity and protein content of the lysates were measured. Transfection efficiencies were calculated by dividing luciferase activity by protein content."}, "COS-7 cell-line [5]": {"system": "COS-7 cell-line", "assay": "Cytotoxicity of lipoplexes (protein content of transfected versus non-transfected cells)", "type": "cell-based, African green monkey", "conditions": "Chol as helper lipid, ratio 0.7, chloride", "experimental": "as §1"}, "[6]": {"system": "polarized cell line MDCK-C7"}, "COS-7 cell-line [7]": {"system": "COS-7 cell-line", "assay": "Lipofection (luciferase reporter) transfection efficiency in COS-7 cells", "type": "cell-based, African green monkey", "remark": "listed apart in the source"}, "[8]": {"conditions": "racemic, chloride, 70 mol-% cholesterol, MDA-MB-468"}, "[9]": {"conditions": "racemic, chloride, 70 mol-% cholesterol"}}, "note": "“Also recorded” adds a separate entry of the source."}
{"smiles": "CCCCCCCCCCCCCCN(CCCCCCCCCCCCCC)CC(O)CO", "note": "(stereo not shown) [KL-14-analog which was not methylated]", "values": [{"measurement": "transfection", "setting": "COS-7 cell-line [1]; not methylated analog", "value": "did not transfect at all"}]}
{"smiles": "CCCCCCCCCCCCCC[N+](C)(CCCCCCCCCCCCCC)CC(O)CO", "note": "(stereo not shown) [KL-14]", "values": [{"measurement": "transfection efficiency (comparison within the library)", "setting": "COS-7 cell-line [1]; R-configurated, chloride, equimolar DOPE, COS-7", "value": "most effective; also recorded: highest transfection efficiency"}, {"measurement": "transfection efficiency, DOPE-formulation compared with cholesterol mixture", "setting": "[2]; equimolar mixture with DOPE, MDA-MB-468", "value": "lower"}, {"measurement": "factor by which transfection efficiency is reduced in comparison with COS-7-cells", "setting": "[2]; [8]", "value": "about 12"}, {"measurement": "transfection efficiency, times higher than for DOTAP", "setting": "[2]; [8]", "value": 8}, {"measurement": "transfection efficiency, DOPE-formulation compared with cholesterol mixture", "setting": "[3]; equimolar mixture with DOPE", "value": "lower"}, {"measurement": "factor by which transfection efficiency is reduced in comparison with COS-7-cells", "setting": "[3]; [9]", "value": "about 12"}, {"measurement": "transfection efficiency, times higher than for DOTAP", "setting": "[3]; [9]", "value": 8}, {"measurement": "factor by which transfection efficiency is reduced in comparison with COS-7-cells", "setting": "primary dendritic cells; racemic, chloride, 70 mol-% cholesterol, dendritic cell", "value": "about 600"}, {"measurement": "transfection efficiency, fold increase over DOTAP", "setting": "primary dendritic cells; racemic, chloride, 70 mol-% cholesterol, dendritic cells", "value": "1.5-2"}, {"measurement": "viability", "setting": "[4]", "value": "~70", "unit": "%"}, {"measurement": "toxicity, R- versus S-configuration", "setting": "COS-7 cell-line [5]", "value": "statistically similar"}, {"measurement": "factor by which transfection efficiency is reduced in comparison with COS-7-cells", "setting": "[6]", "value": "about 100"}, {"measurement": "transfection efficiency, fold increase over DOTAP", "setting": "[6]", "value": "1.5-2"}, {"measurement": "transfection efficiency, R- versus S-configuration", "setting": "COS-7 cell-line [7]; Chol as helper lipid, ratio 0.7, chloride", "value": "statistically similar"}, {"measurement": "Chol/KL-14 ratio giving highest transfection efficiency", "setting": "COS-7 cell-line [7]; Cholesterol as helper lipid", "value": "0.5-0.7"}, {"measurement": "transfection efficiency", "setting": "COS-7 cell-line [7]; Cholesterol as helper lipid, Chol/KL-14 ratios 0.3 - 1.2, compared with DOPE mixtures", "value": "always higher than for the mixtures of KL-14 with DOPE"}, {"measurement": "transfection efficiency", "setting": "COS-7 cell-line [7]; DOPE as helper lipid, DOPE/KL-14 ratio 0.3 to 1.2", "value": "very high"}, {"measurement": "transfection efficiency as % of the chloride values", "setting": "COS-7 cell-line [7]; racemic, counter ion acetate, cholesterol/KL-14 ratio 0.7", "value": 57, "unit": "%"}, {"measurement": "transfection efficiency (comparison of counter ions)", "setting": "COS-7 cell-line [7]; racemic, counter ion chloride, cholesterol/KL-14 ratio 0.7", "value": "highest transfection efficiency"}, {"measurement": "transfection efficiency as % of the values found for chloride", "setting": "COS-7 cell-line [7]; racemic, counter ion methylsulfate, cholesterol/KL-14 ratio 0.7", "value": "70-75%"}, {"measurement": "transfection efficiency as % of the values found for chloride", "setting": "COS-7 cell-line [7]; racemic, counter ion sulfate, cholesterol/KL-14 ratio 0.7", "value": "70-75%"}, {"measurement": "transfection efficiency as % of that of the standard lipid DOTAP", "setting": "COS-7 cell-line [7]; without helper lipids", "value": 70, "unit": "%"}]}
{"smiles": "CCCCCCCC/C=C\\CCCCCCCC(=O)OCC(C[N+](C)(C)C)OC(=O)CCCCCCC/C=C\\CCCCCCCC", "note": "(stereo not shown) [DOTAP, N-(1(2,-dioleyoyl)propyl)-N,N,N-trimethylammonium chloride, reference compound]", "values": [{"measurement": "transfection efficiency", "setting": "COS-7 cell-line [1]; COS-7, lower line", "value": "466,72 +/- 320,44 (11) rlu/µg protein/ml"}, {"measurement": "transfection efficiency", "setting": "[2]; MDA-MB468, lower line", "value": "92,58 +/- 82,86 (9) rlu/µg protein/ml"}, {"measurement": "transfection efficiency", "setting": "[3]; lower line", "value": "101,65 +/- 93,42 (7) rlu/µg protein/ml"}, {"measurement": "transfection efficiency", "setting": "primary dendritic cells; DC 5day, lower line", "value": "3,18 +/- 5,87 (3) rlu/µg protein/ml"}, {"measurement": "transfection efficiency", "setting": "[6]", "value": "26,64 +/- 3,33 (2) rlu/µg protein/ml"}]}
